Results: patent US9682995B2, “Amino-substituted isothiazoles” (BAYER PHARMA AKTIENGESELLSCHAFT, priority 2013, dated 2017)

Tests used:
[1] = tested on: spindle assembly checkpoint; assay: SAC-Formation - Nocodazole-Induced Assay; format: cell-based; settings: Homo sapiens; HeLa cells, nocodazole 0.1 μg/ml, 24 h, phosphorylated histone H3 on serine 10
Excerpt: (§1) The spindle assembly checkpoint assures the proper segregation of chromosomes during mitosis. Upon entry into mitosis, chromosomes begin to condensate which is accompanied by the phosphorylation of histone H3 on serine 10. Dephosphorylation of histone H3 on serine 10 begins in anaphase and ends at early telophase. Accordingly, phosphorylation of histone H3 on serine 10 can be utilized as a marker of cells in mitosis. Nocodazole is a microtubule destabilizing substance. Paclitaxel is a microtubule stabilizing compound. Thus, nocodazole as well as paclitaxel interfere with microtubule dynamics and mobilize the spindle assembly checkpoint. […] The mitotic breakthrough can be detected by the decrease of cells with phosphorylation of histone H3 on serine 10. This decline is used as a marker to determine the capability of compounds of the present invention to induce a mitotic breakthrough. The typical morphological alteration of nuclei with a prematurely completed mitosis after SAC-inhibition can be monitored via image analysis routines supporting those findings.
(§2) The nocodazole and paclitaxel variations were used to focus on compounds that are capable of inhibiting a SAC induced by both microtubule destabilization as well as microtubule stabilization. When SAC inducing agents and compounds are given simultaneously, inhibitors that effectively block the SAC during formation or abrogation are identified. When cells are incubated with a SAC inducing agent and the SAC interfering compound is given after a defined time, inhibitors are identified that effectively block SAC abrogation.
(§3) Cultivated cells of the human cervical tumor cell line HeLa (ATCC CCL-2) were plated at a density of 1000 cells/well in a 1536-well microtiter plate in 2 μl PAA Ham's F12 Medium supplemented with 1% (v/v) glutamine, 1% (v/v) penicillin, 1% (v/v) streptomycin and 10% (v/v) fetal calf serum. After incubation overnight at 37° C., 10 μl/well nocodazole at a final concentration of 0.1 μg/ml were added to cells. Test compounds solubilized in dimethyl sulfoxide (DMSO) were added at various concentrations (0 μM, as well as in the range of 0.005 μM-20 μM; the final concentration of the solvent DMSO was 0.5% (v/v)). Cells were incubated for 24 h at 37° C. in the presence of test compounds in combination with nocodazole. Thereafter, cells were fixed in 4% (v/v) paraformaldehyde in phosphate buffered saline (PBS) at 4° C. overnight then permeabilized in 0.1% (v/v) Triton X™ 100 in PBS at room temperature for 20 min and blocked in 0.5% (v/v) bovine serum albumin (BSA) in PBS at room temperature for 15 min. After washing with PBS, 5 μl/well antibody solution (anti-phospho-histone H3 clone 3H10, FITC; Millipore, Cat #16-222; 1:1000 dilution) was added to cells, which were incubated for 2 h at room temperature. Afterwards, cells were washed with PBS and 5 μl/well solution of HOECHST 33342 dye (5 μg/ml) was added to cells and cells were incubated 15 min at room temperature in the dark. Cells were washed twice with PBS then covered with PBS and stored at 4° C. until analysis. Images were acquired with a PERKIN ELMER OPERA™ High-Content Analysis reader. Images were analyzed with image analysis software MetaXpress™ from Molecular devices utilizing the Mitotic Index application module. In this assay both labels HOECHST 33342 and phosphorylated Histone H3 on serine 10 were measured. HOECHST 33342 labels the DNA and is used to count the cell number. The staining of phosphorylated Histone H3 on serine 10 determines the number of mitotic cells. […] Otherwise cells were arrested at G2/M phase of the cell cycle progression. The raw assay data were further analyzed by four-parametric hill equation using Genedata's Assay Analyzer and Condoseo software.

[2] = tested on: spindle assembly checkpoint; assay: SAC-Formation - Paclitaxel-Induced Assay; format: cell-based; settings: Homo sapiens; HeLa cells, paclitaxel 0.05 μM, 24 h, phosphorylated histone H3 on serine 10
Excerpt: as §1, §2
as §3, with “paclitaxel” for “nocodazole”, “0.05 μM” for “0.1 μg/ml”, “paclitaxel.” for “nocodazole.”

Structure (SMILES) | IC50 [1] | IC50 [2]
Cc1nsc(Nc2cncc(C(=O)N3CCOCC3)n2)c1C(=O)Nc1ccc(F)c(F)c1 [Example 107, N-(3,4-Difluorophenyl)-3-methyl-5-{[6-(morpholin-4-ylcarbonyl)pyrazin-2-yl]amino}-1,2-thiazole-4-carboxamide] | 340 nM | 210 nM
COc1ncc(NC(=O)c2c(C)nsc2Nc2ccc(C#N)cn2)cc1C [Example 120, 5-[(5-Cyanopyridin-2-yl)amino]-N-(6-methoxy-5-methylpyridin-3-yl)-3-methyl-1,2-thiazole-4-carboxamide] | 270 nM | 1200 nM
CCNC(=O)c1csc(Nc2snc(C)c2C(=O)Nc2ccc(F)c(F)c2)n1 [Example 99, N-(3,4-Difluorophenyl)-5-{[4-(ethylcarbamoyl)-1,3-thiazol-2-yl]amino}-3-methyl-1,2-thiazole-4-carboxamide] | 20000 nM | 300 nM
CCc1ccnc(Nc2snc(C)c2C(=O)Nc2ccccc2CC)n1 [Example 17, N-(2-Ethylphenyl)-5-[(4-ethylpyrimidin-2-yl)amino]-3-methyl-1,2-thiazole-4-carboxamide] | 6000 nM | 19000 nM
COc1ccc(NC(=O)c2c(C)nsc2Nc2ncccc2C#N)cn1 [Example 36, 5-[(3-Cyanopyridin-2-yl)amino]-N-(6-methoxypyridin-3-yl)-3-methyl-1,2-thiazole-4-carboxamide] | 1600 nM | 3700 nM
CCc1ccccc1NC(=O)c1c(C)nsc1Nc1cnc2ccc(Cl)cc2n1 [Example 41, 5-[(7-Chloroquinoxalin-2-yl)amino]-N-(2-ethylphenyl)-3-methyl-1,2-thiazole-4-carboxamide] | 160 nM | 810 nM
Cc1nsc(Nc2cnc3ccccc3n2)c1C(=O)Nc1ccc(Oc2ccccc2)nc1 [Example 112, 3-Methyl-N-(6-phenoxypyridin-3-yl)-5-(quinoxalin-2-ylamino)-1,2-thiazole-4-carboxamide] | 18 nM | 57 nM
Cc1nsc(Nc2cnc3cc(F)ccc3n2)c1C(=O)Nc1ccc(F)c(F)c1 [Example 46, N-(3,4-Difluorophenyl)-5-[(6-fluoroquinoxalin-2-yl)amino]-3-methyl-1,2-thiazole-4-carboxamide] | 61 nM | 34 nM
COC(=O)c1ccc(Nc2snc(C)c2C(=O)Nc2ccc(OC)nc2)nc1 [Example 31, Methyl 6-({4-[(6-methoxypyridin-3-yl)carbamoyl]-3-methyl-1,2-thiazol-5-yl}amino)-nicotinate] | 5500 nM | > 20000 nM
CCc1ccccc1NC(=O)c1c(C)nsc1Nc1cnc2cc(F)ccc2n1 [Example 20, N-(2-Ethylphenyl)-5-[(6-fluoroquinoxalin-2-yl)amino]-3-methyl-1,2-thiazole-4-carboxamide] | 340 nM | 400 nM
Cc1nsc(Nc2cnc3ccccc3n2)c1C(=O)Nc1ccc(Oc2ccc(F)cc2F)nc1 [Example 113, N-[6-(2,4-Difluorophenoxy)pyridin-3-yl]-3-methyl-5-(quinoxalin-2-ylamino)-1,2-thiazole-4-carboxamide] | 470 nM | 1000 nM
CCc1ccccc1NC(=O)c1c(C)nsc1Nc1ccc(C#N)cn1 [Example 7, 5-[(5-Cyanopyridin-2-yl)amino]-N-(2-ethylphenyl)-3-methyl-1,2-thiazole-4-carboxamide] | 830 nM | 2500 nM

Continued by falling IC50 [1], values first:

IC50 [1] | IC50 [2] | Structure (SMILES)
3000 nM | 7900 nM | CCOC(=O)c1coc(Nc2snc(C)c2C(=O)Nc2ccc(F)c(F)c2)n1 [Example 98, Ethyl 2-({4-[(3,4-difluoro-phenyl)carbamoyl]-3-methyl-1,2-thiazol-5-yl}amino)-1,3-oxazole-4-carboxylate]
2200 nM | 1200 nM | COc1ccc(NC(=O)c2c(C)nsc2Nc2cc(C#N)ccn2)cn1 [Example 25, 5-[(4-Cyanopyridin-2-yl)amino]-N-(6-methoxypyridin-3-yl)-3-methyl-1,2-thiazole-4-carboxamide]
2000 nM | 20000 nM | Cc1nsc(Nc2cncc(N(C)C)n2)c1C(=O)Nc1ccc(F)c(F)c1 [Example 105, N-(3,4-Difluorophenyl)-5-{[6-(dimethylamino)pyrazin-2-yl]amino}-3-methyl-1,2-thiazole-4-carboxamide]
1800 nM | 4900 nM | CCc1ccccc1NC(=O)c1c(C)nsc1Nc1cnccn1 [Example 1, N-(2-Ethylphenyl)-3-methyl-5-(pyrazin-2-ylamino)-1,2-thiazole-4-carboxamide]
650 nM | 3800 nM | Cc1nsc(Nc2ccc(C#N)cn2)c1C(=O)Nc1ccc(OC(C)C)nc1 [Example 110, 5-[(5-Cyanopyridin-2-yl)amino]-N-(6-isopropoxyridin-3-yl)-3-methyl-1,2-thiazole-4-carboxamide]
350 nM | 960 nM | Cc1nsc(Nc2ncc(C(=O)N(C)C)s2)c1C(=O)Nc1ccc(F)c(F)c1 [Example 49, N-(3,4-Difluorophenyl)-5-{[5-(dimethylcarbamoyl)-1,3-thiazol-2-yl]amino}-3-methyl-1,2-thiazole-4-carboxamide]
200 nM | 1800 nM | Cc1nsc(Nc2cc(C#N)ccn2)c1C(=O)Nc1ccc(Oc2ccccc2)nc1 [Example 111, 5-[(4-Cyanopyridin-2-yl)amino]-3-methyl-N-(6-phenoxypyridin-3-yl)-1,2-thiazole-4-carboxamide]
59 nM | 880 nM | Cc1nsc(Nc2cnc3ccccc3n2)c1C(=O)Nc1ccc(OC(C)C)nc1 [Example 122, N-(6-Isopropoxypyridin-3-yl)-3-methyl-5-(quinoxalin-2-ylamino)-1,2-thiazole-4-carboxamide]
45 nM | 120 nM | Cc1nsc(Nc2cnc3ccccc3n2)c1C(=O)Nc1ccc(Cl)c(F)c1 [Example 40, N-(4-Chloro-3-fluorophenyl)-3-methyl-5-(quinoxalin-2-ylamino)-1,2-thiazole-4-carboxamide]
34 nM | 110 nM | COc1ccc(NC(=O)c2c(C)nsc2Nc2cnc3c(F)c(F)ccc3n2)cn1 [Example 43, 5-[(5,6-Difluoroquinoxalin-2-yl)amino]-N-(6-methoxypyridin-3-yl)-3-methyl-1,2-thiazole-4-carboxamide]
